The source of these data is PMC4618117, “Synthesis and Antiproliferative Activity of Steroidal Thiosemicarbazone Platinum (Pt(II)) Complexes” (Bioinorganic Chemistry and Applications, 2015).

Data set [1] deals with Bel-7404 (human liver carcinoma) cells. Description: MTT antiproliferative assay, Bel-7404. In kind it is cell-based. The conditions noted are these: for IC50: mean of three independent determinations, read-out: Cytotoxicity IC50 Bel-7404. On the procedure:
(§1) Melting points were determined on an X4 apparatus (Beijing Tech Instrument Co. Ltd., Beijing, China) and were uncorrected. The ^1H and ^13C NMR spectra were recorded in CDCl3 on a Bruker AV-600 spectrometer at working frequencies 600 and 150 MHz and a Bruker AV-300 spectrometer at working frequencies 300 and 75 MHz, respectively. Chemical shifts are expressed in parts per million (δ) values and coupling constants (J) in Hertz. Infrared spectra were measured with a Thermo Scientific Nicolet IS-10 Spectrophotometer (Thermo Scientific, America). HREIMS was measured on an Agilent 6210 TOFMS instrument (Agilent Technologies, America). The cell proliferation assay was undertaken by a MTT method using 96-well plates on a […] MK3 analysis spectrometer (Thermo Scientific, Shanghai, China).
(§2) The detailed procedure has been reported in our previous work.
(§3) The antiproliferative activities of all steroidal thiosemicarbazones and their Pt(II) metal complexes were determined in vitro on Bel 7404, HeLa, and HEK293T. […] The results are summarized as IC50 values in μM in Table 1.
Background: Tetrazolium dyes change colour on reduction, which living cells bring about.

Data set [2] deals with HeLa (human cervical carcinoma) cells. Description: MTT antiproliferative assay, HeLa. In kind it is cell-based. The conditions noted are these: for IC50: mean of three independent determinations, read-out: Cytotoxicity IC50 HeLa. On the procedure: as §1, §2, §3
Data set [3] is described as follows: MTT antiproliferative assay, HEK293T. The conditions noted are these: human, HEK293T normal kidney epithelial cells, mean of three independent determinations, read-out: Cytotoxicity IC50 HEK293T. In kind it is cell-based. On the procedure: as §1, §2
(§4) The antiproliferative activities of all steroidal thiosemicarbazones and their Pt(II) metal complexes were determined in vitro on Bel 7404, HeLa, and HEK293T.

The subject of data set [4] is HEK293T (normal kidney epithelial cells). The experiment in a line: MTT antiproliferative assay, HEK293T. The format is cell-based. As to conditions: mean of three independent determinations, read-out: Cytotoxicity IC50 HEK293T. On the procedure: as §1, §2, §4
[5] abbreviates: Homo sapiens, BEL-7404, MTT assay.

Like-named read-outs stand apart in the source and are kept apart here. A value given as a limit tells only on which side of the number the result lay.

As usually defined, the IC50 is the concentration that inhibits the measured activity by half. In the case of `COC(=O)CCC(C)C1CCC2C3C(O)CC4CC(=NNC(N)=S)CCC4(C)C3CCC12C` (stereo not shown) [Compound 10, Methyl 3-Thiosemicarbazonyl-7-hydroxychenodeoxycholicate], the IC50 in data set [1] (setting [5]) is greater than 200 µM; in data set [2] (Homo sapiens, HeLa, MTT assay) it was 142 µM; in data set [3] it was greater than 200 µM.
As usually defined, the melting point is the temperature, or range, at which the solid turns liquid. Molecule `COC(=O)CCC(C)C1CCC2C3C(=O)CC4CC(=NNC(N)=S)CCC4(C)C3CCC12C` (stereo not shown) [Compound 8, Methyl 3-Thiosemicarbazonyl-7-oxochenodeoxycholicate] returned a melting point of 285 to 286 °C. For the same molecule, the IC50 in data set [1] (setting [5]) is greater than 200 µM. For the same molecule, the IC50 in data set [2] (Homo sapiens, HeLa, MTT assay) is 96 µM. For the same molecule, the IC50 in data set [3] was greater than 200 µM.
Turning to `COC(=O)CCC(C)C1CCC2C3CCC4CC(=NNC(N)=S)CCC4(C)C3CC(=O)C12C` (stereo not shown) [Compound 13, Methyl 3-Thiosemicarbazonyl-12-oxo-7-deoxycholicate], the melting point was 125 to 127 °C. Besides, in data set [1] (setting [5]), the IC50 was greater than 200 µM. Moreover, the IC50 in data set [2] (Homo sapiens, HeLa, MTT assay) is greater than 200 µM. Besides, the IC50 in data set [3] is greater than 200 µM.
`CC(=O)Oc1ccc2c(c1)CCC1C2CCC2(C)/C(=N/NC(N)=S)CCC12` (stereo not drawn) [Compound 5, 3β-Acetyloxyestron-17-thiosemicarbazone] displayed a melting point of 248 to 249 °C. In addition, in data set [1] (setting [5]), the IC50 is greater than 200 µM. In data set [2] (Homo sapiens, HeLa, MTT assay), the IC50 was determined as 42 µM. Moreover, the concentration for half-maximal inhibition (IC50) in data set [3] was greater than 200 µM.
Regarding `CC12CCC3c4ccc(O)cc4CCC3C1CCC2=NNC(N)=S` (stereo not drawn) [Compound 2, 3β-Hydroxyestron-17-thiosemicarbazone], the melting point lay in the range of 254 to 256 °C. For the same molecule, the IC50 in data set [1] (setting [5]) was 19 µM. In data set [2] (Homo sapiens, HeLa, MTT assay), the IC50 is 34 µM.
Regarding `CC12CCC3c4ccc(O)cc4CCC3C1CCC2=[N+]1NC(N)=[S+][Pt-2]1([Cl])[Cl]` (stereo not shown) [Compound 3, [PtL ^2 Cl 2]], the IC50 in data set [1] (MTT assay) was 39 µM; in data set [2] (MTT assay), 23 µM; in data set [4], greater than 200 µM. In addition, the “Cytotoxicity against Bel 7404 cells (in words)” value in data set [1] (MTT assay, verbal summary) was “obvious cytotoxicity”. Moreover, the “SI Bel 7404 (Selectivity Index)” value in data set [1] (ratio IC50 HEK293T versus IC50 Bel 7404) is listed as greater than 5.1. Besides, the “Cytotoxicity against HeLa cells (in words)” value in data set [2] (MTT assay, verbal summary) was “obvious cytotoxicity”. Moreover, the “SI HeLa (Selectivity Index)” value in data set [2] (ratio IC50 HEK293T versus IC50 HeLa) is greater than 8.7.
